Data: ChEMBL document CHEMBL4138123, “Design, synthesis and biological evaluation of novel pyrazolochalcones as potential modulators of PI3K/Akt/mTOR pathway and inducers of apoptosis in breast cancer cells” (Eur J Med Chem, 2017)

Columns and labels:
[1] = system: MOLT-4; assay: Cytotoxicity against human MOLT4 cells assessed as cell growth at 0.1 uM after 48 hrs by sulforhodamine B assay relative to control; assay type: functional; conditions: MOLT-4, 48 h, read-out: Activity
[2] = system: UACC-257; assay: Cytotoxicity against human UACC257 cells assessed as cell growth at 100 uM after 48 hrs by sulforhodamine B assay relative to control; assay type: functional; conditions: UACC-257, 48 h, read-out: Activity
[3] = system: COLO 205; assay: Cytotoxicity against human COLO205 cells assessed as cell growth at 1 uM after 48 hrs by sulforhodamine B assay relative to control; assay type: functional; conditions: COLO 205, 48 h, read-out: Activity
[4] = system: U-251; assay: Cytotoxicity against human U251 cells assessed as cell growth at 1 uM after 48 hrs by sulforhodamine B assay relative to control; assay type: functional; conditions: U-251, 48 h, read-out: Activity
[5] = system: BT-549; assay: Cytotoxicity against human BT549 cells assessed as cell growth at 1 uM after 48 hrs by sulforhodamine B assay relative to control; assay type: functional; conditions: BT-549, 48 h, read-out: Activity
[6] = system: SK-MEL-5; assay: Cytotoxicity against human SK-MEL-5 cells assessed as cell growth at 0.01 uM after 48 hrs by sulforhodamine B assay relative to control; assay type: functional; conditions: SK-MEL-5, 48 h, read-out: Activity
[7] = system: OVCAR-3; assay: Cytotoxicity against human OVCAR3 cells assessed as cell growth at 0.1 uM after 48 hrs by sulforhodamine B assay relative to control; assay type: functional; conditions: OVCAR-3, 48 h, read-out: Activity
[8] = system: HCT-116; assay: Cytotoxicity against human HCT116 cells assessed as cell growth at 0.1 uM after 48 hrs by sulforhodamine B assay relative to control; assay type: functional; conditions: HCT-116, 48 h, read-out: Activity
[9] = system: NCI-H23; assay: Cytotoxicity against human NCI-H23 cells assessed as cell growth at 100 uM after 48 hrs by sulforhodamine B assay relative to control; assay type: functional; conditions: NCI-H23, 48 h, read-out: Activity
[10] = system: SF-539; assay: Cytotoxicity against human SF539 cells assessed as cell growth at 100 uM after 48 hrs by sulforhodamine B assay relative to control; assay type: functional; conditions: SF-539, 48 h, read-out: Activity
[11] = system: NCI-H322M; assay: Cytotoxicity against human NCI-H322M cells assessed as cell growth at 10 uM after 48 hrs by sulforhodamine B assay relative to control; assay type: functional; conditions: read-out: Activity
[12] = system: Malme-3M; assay: Cytotoxicity against human MALME-3M cells assessed as growth inhibition after 48 hrs by sulforhodamine B assay; assay type: functional
[13] = system: UACC-257; assay: Cytotoxicity against human UACC257 cells assessed as cell growth at 10 uM after 48 hrs by sulforhodamine B assay relative to control; assay type: functional; conditions: UACC-257, 48 h, read-out: Activity
[14] = system: T47D; assay: Cytotoxicity against human T47D cells assessed as cell growth at 1 uM after 48 hrs by sulforhodamine B assay relative to control; assay type: functional; conditions: read-out: Activity
[15] = system: HOP-62; assay: Cytotoxicity against human HOP62 cells assessed as cell growth at 1 uM after 48 hrs by sulforhodamine B assay relative to control; assay type: functional; conditions: HOP-62, 48 h, read-out: Activity
[16] = system: TK-10; assay: Cytotoxicity against human TK10 cells assessed as cell growth at 100 uM after 48 hrs by sulforhodamine B assay relative to control; assay type: functional; conditions: TK-10, 48 h, read-out: Activity
[17] = system: ACHN; assay: Cytotoxicity against human ACHN cells assessed as cell growth at 1 uM after 48 hrs by sulforhodamine B assay relative to control; assay type: functional; conditions: read-out: Activity
[18] = system: HCC 2998; assay: Cytotoxicity against human HCC2998 cells assessed as cell growth at 0.01 uM after 48 hrs by sulforhodamine B assay relative to control; assay type: functional; conditions: HCC 2998, 48 h, read-out: Activity
[19] = system: NCI-H522; assay: Cytotoxicity against human NCI-H522 cells assessed as growth inhibition after 48 hrs by sulforhodamine B assay; assay type: functional; conditions: NCI-H522, 48 h
[20] = system: MDA-MB-468; assay: Cytotoxicity against human MDA-MB-468 cells assessed as growth inhibition after 48 hrs by sulforhodamine B assay; assay type: functional; conditions: MDA-MB-468, 48 h
[21] = system: HCT-15; assay: Cytotoxicity against human HCT15 cells assessed as cell growth at 100 uM after 48 hrs by sulforhodamine B assay relative to control; assay type: functional; conditions: HCT-15, 48 h, read-out: Activity
[22] = system: DU-145; assay: Cytotoxicity against human DU145 cells assessed as cell growth at 0.01 uM after 48 hrs by sulforhodamine B assay relative to control; assay type: functional; conditions: DU-145, 48 h, read-out: Activity
[23] = system: MCF7; assay: Cytotoxicity against human MCF7 cells assessed as cell growth at 1 uM after 48 hrs by sulforhodamine B assay relative to control; assay type: functional; conditions: MCF7, 48 h, read-out: Activity
[24] = system: M14; assay: Cytotoxicity against human M14 cells assessed as cell growth at 0.01 uM after 48 hrs by sulforhodamine B assay relative to control; assay type: functional; conditions: M14, 48 h, read-out: Activity
[25] = system: SF-268; assay: Cytotoxicity against human SF268 cells assessed as cell growth at 0.1 uM after 48 hrs by sulforhodamine B assay relative to control; assay type: functional; conditions: SF-268, 48 h, read-out: Activity
[26] = system: SK-MEL-5; assay: Cytotoxicity against human SK-MEL-5 cells assessed as cell growth at 100 uM after 48 hrs by sulforhodamine B assay relative to control; assay type: functional; conditions: SK-MEL-5, 48 h, read-out: Activity
[27] = system: MDA-MB-231; assay: Cytotoxicity against human MDA-MB-231 cells assessed as growth inhibition after 48 hrs by MTT assay; assay type: functional, cell-based; conditions: MDA-MB-231, 48 h
[28] = system: OVCAR-8; assay: Cytotoxicity against human OVCAR8 cells assessed as growth inhibition after 48 hrs by sulforhodamine B assay; assay type: functional; conditions: OVCAR-8, 48 h
[29] = system: SN12C; assay: Cytotoxicity against human SN12C cells assessed as cell growth at 100 uM after 48 hrs by sulforhodamine B assay relative to control; assay type: functional; conditions: read-out: Activity
[30] = system: ACHN; assay: Cytotoxicity against human ACHN cells assessed as growth inhibition after 48 hrs by sulforhodamine B assay; assay type: functional
[31] = system: UO-31; assay: Cytotoxicity against human UO31 cells assessed as cell growth at 0.01 uM after 48 hrs by sulforhodamine B assay relative to control; assay type: functional; conditions: UO-31, 48 h, read-out: Activity
[32] = system: K562; assay: Cytotoxicity against human K562 cells assessed as cell growth at 1 uM after 48 hrs by sulforhodamine B assay relative to control; assay type: functional; conditions: K562, 48 h, read-out: Activity
[33] = system: 786-0; assay: Cytotoxicity against human 786-0 cells assessed as cell growth at 10 uM after 48 hrs by sulforhodamine B assay relative to control; assay type: functional; conditions: 786-0, 48 h, read-out: Activity
[34] = system: HCC 2998; assay: Cytotoxicity against human HCC2998 cells assessed as cell growth at 100 uM after 48 hrs by sulforhodamine B assay relative to control; assay type: functional; conditions: HCC 2998, 48 h, read-out: Activity
[35] = system: MDA-MB-231; assay: Cytotoxicity against human MDA-MB-231 cells assessed as cell growth at 1 uM after 48 hrs by sulforhodamine B assay relative to control; assay type: functional; conditions: MDA-MB-231, 48 h, read-out: Activity

Molecule COc1cc(C(=O)/C=C/c2cc(-c3ccc4c(c3)OCO4)n[nH]2)cc(OC)c1OC has a growth at 0.1 µM [1] of 98%, a growth at 100 µM [2] of -97% and a growth at 1 µM [3] of 95%. For the same molecule, the growth at 1 µM [4] was 63%, the growth at 1 µM [5] was 89% and the growth at 0.01 µM [6] was 99%. The growth at 0.1 µM [7] was 100%, the growth at 0.1 µM [8] was 100% and the growth at 100 µM [9] was -83%. For the same molecule, the growth at 100 µM [10] was -85%, the growth at 10 µM [11] was -22% and the GI50 [12] was 1.85 µM. The LC50 [12] was 15.3 µM, the TGI [12] was 4.69 µM and the growth at 10 µM [13] was -2%. The growth at 1 µM [14] was 68%, the growth at 1 µM [15] was 93% and the growth at 100 µM [16] was -96%. For the same molecule, the growth at 1 µM [17] was 99%, the growth at 0.01 µM [18] was 99% and the GI50 [19] was 1.59 µM. It also gave an LC50 [19] of 7.3 µM, a TGI [19] of 3.41 µM and a GI50 [20] of 1.4 µM. For the same molecule, the LC50 [20] was 8.78 µM, the TGI [20] was 3.5 µM and the growth at 100 µM [21] was -45%. For the same molecule, the growth at 0.01 µM [22] was 102%, the growth at 1 µM [23] was 53% and the growth at 0.01 µM [24] was 98%. It also gave a growth at 0.1 µM [25] of 96%, a growth at 100 µM [26] of -97% and an IC50 [27] of 1.2 µM. For the same molecule, the GI50 [28] was 2.35 µM, the LC50 [28] was 24.8 µM and the TGI [28] was 6.37 µM. The growth at 100 µM [29] was -96%, the GI50 [30] was 2.2 µM and the LC50 [30] was 18.8 µM. For the same molecule, the TGI [30] was 4.95 µM, the growth at 0.01 µM [31] was 85% and the growth at 1 µM [32] was 74%. It also gave a growth at 10 µM [33] of -84%, a growth at 100 µM [34] of -95% and a growth at 1 µM [35] of 83%.

For COc1cc(-c2cc(/C=C/C(=O)c3ccc4c(c3)OCO4)[nH]n2)cc(OC)c1OC, the growth at 0.1 µM [1] was 103%, the growth at 100 µM [2] was -1% and the growth at 1 µM [3] was 93%. It also gave a growth at 1 µM [4] of 85%, a growth at 1 µM [5] of 92% and a growth at 0.01 µM [6] of 98%. The growth at 0.1 µM [7] was 101%, the growth at 0.1 µM [8] was 101% and the growth at 100 µM [9] was 20%. For the same molecule, the growth at 100 µM [10] was -83%, the growth at 10 µM [11] was 3% and the LC50 [12] was 84.5 µM. The TGI [12] was 20.8 µM, the growth at 10 µM [13] was 2% and the growth at 1 µM [14] was 79%. For the same molecule, the growth at 1 µM [15] was 95%, the growth at 100 µM [16] was -47% and the growth at 1 µM [17] was 96%. It also gave a growth at 0.01 µM [18] of 104%, an LC50 [19] of 5.37 µM and a TGI [19] of 2.35 µM. The GI50 [20] was 1.4 µM, the LC50 [20] was 5.82 µM and the TGI [20] was 2.86 µM. It also gave a growth at 100 µM [21] of -10%, a growth at 0.01 µM [22] of 104% and a growth at 1 µM [23] of 65%. For the same molecule, the growth at 0.01 µM [24] was 97%, the growth at 0.1 µM [25] was 90% and the growth at 100 µM [26] was 8%. The IC50 [27] was 1.72 µM, the LC50 [28] was > 100 µM and the TGI [28] was 11.1 µM. The growth at 100 µM [29] was 18%, the LC50 [30] was 7.32 µM and the TGI [30] was 3.71 µM. The growth at 0.01 µM [31] was 86%, the growth at 1 µM [32] was 102% and the growth at 10 µM [33] was -30%. It also gave a growth at 100 µM [34] of -50% and a growth at 1 µM [35] of 86%.
